Laboratory results from publication PMC6746691 (European Journal of Drug Metabolism and Pharmacokinetics, 2019).

Columns and labels:
[1] = Vancomycin treatment safety outcomes; type: in vivo, hospitalized adults (patients); details: for Neutropenia: absolute neutrophil counts < 1000/μL
[2] = system: suspected/confirmed staphylococcal or other Gram-positive infection; assay: Clinical effectiveness; type: in vivo, hospitalized adults (patients); details: for Length of hospitalization: median [min–max]
[3] = Vancomycin clinical pharmacokinetics and serum concentrations; details: for AUC per TDM adjusted dose / AUC per initial dose: NONMEM; for AUC per TDM adjusted dose / t1/2 / AUC per initial dose / Initial vancomycin serum concentration, Peak / Initial vancomycin serum concentration, Trough-2 / Initial vancomycin serum concentration, Trough-1: median [IQR]; for Cl / Ke / Vd / t1/2: at treatment initiation; for Cl / Ke / Vd / Post-dose adjustment trough concentration: mean ± SD, SD; for AUC per initial dose: pre-TDM dose; for Initial vancomycin serum concentration, Peak / Initial vancomycin serum concentration, Trough-2 / Initial vancomycin serum concentration, Trough-1: pre-TDM; for Initial vancomycin serum concentration, Peak: 1–2 h post fourth dose infusion; for Initial vancomycin serum concentration, Trough-2: 30 min before the fifth dose; for Initial vancomycin serum concentration, Trough-1: 30 min before the fourth dose
[4] = peak–trough-monitoring group (n = 30)
[5] = trough-only-monitoring group (n = 35)

Q: With `CN[C@H](CC(C)C)C(=O)N[C@H]1C(=O)N[C@@H](CC(N)=O)C(=O)N[C@H]2C(=O)N[C@H]3C(=O)N[C@H](C(=O)N[C@H](C(=O)O)c4cc(O)cc(O)c4-c4cc3ccc4O)[C@H](O)c3ccc(c(Cl)c3)Oc3cc2cc(c3O[C@@H]2O[C@H](CO)[C@@H](O)[C@H](O)[C@H]2O[C@H]2C[C@](C)(N)[C@H](O)[C@H](C)O2)Oc2ccc(cc2Cl)[C@H]1O` [vancomycin] as the compound, how does the All-cause mortality [1, 4] read?
A: 2 (6.7) n (%)

Q: What about the Neutropenia [1, 4] of the same compound?
A: 1 (3.3) n (%)

Q: What about the All-cause mortality [1, 5] of the same compound?
A: 3 (8.6) n (%)

Q: And the Neutropenia [1, 5]?
A: 3 (8.6) n (%)

Q: What about the Therapeutic failure [2, 4] of the same compound?
A: 7 (23.3) n (%)

Q: And the Length of hospitalization [2, 4]?
A: 15.5 [4–68.9] days

Q: What about the Therapeutic failure [2, 5] of the same compound?
A: 18 (51.4) n (%)

Q: And the Therapeutic cure ([2]; trough-only-monitoring group (n = 35), clinical and/or microbiologic cure, intention-to-treat)?
A: 17 (48.6) n (%)

Q: What about the Length of hospitalization [2, 5] of the same compound?
A: 20 [6–117] days

Q: What about the “AUC per TDM adjusted dose” value [3, 4] of the same compound?
A: 223 [168.82] mg*h/L

Q: What about the “AUC per TDM adjusted dose” value [3, 5] of the same compound?
A: 270 [156.02] mg*h/L

Q: And the Cl [3, 4]?
A: 4.24 ± 2.20 L/h

Q: What about the Ke [3, 4] of the same compound?
A: 0.089 ± 0.051 h⁻¹

Q: And the Vd [3, 4]?
A: 51.14 ± 9.96 L

Q: What about the t1/2 [3, 4] of the same compound?
A: 7.23 [9.75] h

Q: And the Cl [3, 5]?
A: 4.15 ± 2.22 L/h

Q: What about the Ke [3, 5] of the same compound?
A: 0.094 ± 0.05 h⁻¹

Q: What about the Vd [3, 5] of the same compound?
A: 48.5 ± 10.7 L

Q: What about the t1/2 [3, 5] of the same compound?
A: 8.01 [11.12] h

Q: What about the “Post-dose adjustment trough concentration” value [3, 4] of the same compound?
A: 15.6 ± 3.49 mg/L

Q: And the “AUC per initial dose” value [3, 4]?
A: 228 [273.01] mg*h/L

Q: What about the “AUC per initial dose” value [3, 5] of the same compound?
A: 227 [195.6] mg*h/L

Q: And the “Initial vancomycin serum concentration, Peak” value [3, 4]?
A: 27.9 [17.8] mg/L

Q: What about the “Initial vancomycin serum concentration, Peak” value [3, 5] of the same compound?
A: 25 [10] mg/L

Q: And the “Initial vancomycin serum concentration, Trough-2” value [3, 4]?
A: 8.9 [15.1] mg/L

Q: What about the “Initial vancomycin serum concentration, Trough-2” value [3, 5] of the same compound?
A: 10.6 [10.5] mg/L

Q: What about the “Initial vancomycin serum concentration, Trough-1” value [3, 4] of the same compound?
A: 8.4 [12.9] mg/L

Q: What about the “Initial vancomycin serum concentration, Trough-1” value [3, 5] of the same compound?
A: 9 [8.3] mg/L

Q: What about the “Post-dose adjustment trough concentration” value [3, 5] of the same compound?
A: 16.8 ± 3.09 mg/L
